From US7906655B2, “Hepatitis C virus inhibitors” (Bristol-Myers Squibb Company, priority 2008, dated 2011)
pEC50: −log10 of the molar value.

System: HCV 1b genotype
Test: HCV Replicon assay (HCV-neo replicon cells, wild-type)
Format: cell-based
Settings: HCV 1b genotype replicon
Procedure, shortened: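 Inhibition was measured in HCV-neo (genotype 1b) replicon cells. Some assay versions used luciferase reporters.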

[1] = Hepatitis C virus, class symbols

C[C@@](O)(C(=O)N1CCC[C@H]1c1nc2cc(-c3cnc(-c4ccc5nc([C@@H]6CCCN6C(=O)[C@@](C)(O)c6ccccc6)[nH]c5c4)o3)ccc2[nH]1)c1ccccc1 [Example J18, (2S)-1-((2S)-2-(5-(2-(2-((2S)-1-((2S)-2-hydroxy-2-phenyl-propanoyl)-2-pyrrolidinyl)-1H-benzimidazol-6-yl)-1,3-oxazol-5-yl)-1H-benzimidazol-2-yl)-1-pyrrolidinyl)-1-oxo-2-phenyl-2-propanol]
pEC50 [1]: > 8.34

COc1ccc2ccc(C(=O)N3CCC[C@H]3c3nc4cc(C#Cc5ccc6[nH]c([C@@H]7CCCN7C(=O)c7ccc8ccc(OC)cc8n7)nc6c5)ccc4[nH]3)nc2c1 [Example M17, 2,2′-(1,2-ethynediylbis(1H-benzimidazole-5,2-diyl(2S)-2,1-pyrrolidinediylcarbonyl))bis(7-methoxyquinoline)]
pEC50 (Hepatitis C virus, numeric values): 7.70

COC(=O)N[C@@H](C)C(=O)N1CCC[C@H]1c1nc2cc(-c3cnc(-c4cccc5[nH]c([C@@H]6CCCN6C(=O)[C@H](C)NC(=O)OC)nc45)o3)ccc2[nH]1 [Example J8, methyl ((1S)-2-((2S)-2-(5-(2-(2-((2S)-1-(N-(methoxy-carbonyl)-L-alanyl)-2-pyrrolidinyl)-1H-benzimidazol-4-yl)-1,3-oxazol-5-yl)-1H-benzimidazol-2-yl)-1-pyrrolidinyl)-1-methyl-2-oxoethyl) carbamate]
pEC50 [1]: > 8.34

CN(C)[C@@H](C(=O)N1CCC[C@H]1c1nc2cc(-c3cnc(-c4ccc5nc([C@@H]6CCCN6C(=O)[C@@H](c6ccccc6)N(C)C)[nH]c5c4)o3)ccc2[nH]1)c1ccccc1 [Example J20, (1R)-2-((2S)-2-(5-(2-(2-((2S)-1-((2R)-2-(dimethyl-amino)-2-phenylacetyl)-2-pyrrolidinyl)-1H-benzimidazol-6-yl)-1,3-oxazol-5-yl)-1H-benzimidazol-2-yl)-1-pyrrolidinyl)-N,N-dimethyl-2-oxo-1-phenyl-ethanamine]
pEC50 [1]: > 8.34

CN(C)[C@@H](C(=O)N1CCC[C@H]1c1nc2ccc(C(=O)c3ccc4nc([C@@H]5CCCN5C(=O)[C@@H](c5ccccc5)N(C)C)[nH]c4c3)cc2[nH]1)c1ccccc1 [Example J32, bis(2-((2S)-1-((2R)-2-(dimethylamino)-2-phenylacetyl)-2-pyrrolidinyl)-1H-benzimidazol-5-yl)methanone]
pEC50 [1]: 7.00 to 8.34

CC(C)(C)OC(=O)CC[C@H](NC(=O)OCc1ccccc1)c1nc2cc(CCc3ccc4nc([C@H](CCC(=O)OC(C)(C)C)NC(=O)OCc5ccccc5)[nH]c4c3)ccc2[nH]1 [OL10, tert-butyl (4S)-4-(((benzyloxy)carbonyl)amino)-4-(5-(2-(2-((1S)-1-(((benzyloxy)carbonyl)amino)-4-tert-butoxy-4-oxobutyl)-1H-benzimidazol-6-yl)ethyl)-1H-benzimidazol-2-yl)butanoate]
pEC50 [1]: 6.00 to 7.00

O=C(C1CCC1)N1CCC[C@H]1c1nc2cc(CCc3ccc4nc([C@@H]5CCCN5C(=O)C5CCC5)[nH]c4c3)ccc2[nH]1 [Example M45, 2-((2S)-1-(cyclobutylcarbonyl)-2-pyrrolidinyl)-5-(2-(2-((2S)-1-(cyclobutylcarbonyl)-2-pyrrolidinyl)-1H-benzimidazol-6-yl)ethyl)-1H-benzimidazole]
pEC50 [1]: 6.00 to 7.00

C[C@@H](c1nc2cc(C#Cc3ccc4[nH]c([C@H](C)N(C)C(=O)[C@H](O)c5ccccc5)nc4c3)ccc2[nH]1)N(C)C(=O)[C@H](O)c1ccccc1 [Example M33]
pEC50 (class symbols): > 8.34

O=C(Cc1ccccc1)N1CCC[C@H]1c1nc2cc(-c3cnc(-c4cccc5[nH]c([C@@H]6CCCN6C(=O)Cc6ccccc6)nc45)o3)ccc2[nH]1 [Example J7, 2-((2S)-1-(phenylacetyl)-2-pyrrolidinyl)-4-(5-(2-((2S)-1-(phenylacetyl)-2-pyrrolidinyl)-1H-benzimidazol-5-yl)-1,3-oxazol-2-yl)-1H-benzimidazole]
pEC50 [1]: 7.00 to 8.34

C[C@H](NC(=O)[C@@H](c1ccccc1)N(C)C)c1nc2cc(C#Cc3ccc4nc([C@H](C)NC(=O)[C@@H](c5ccccc5)N(C)C)[nH]c4c3)ccc2[nH]1 [Example M29, (2R)-2-(dimethylamino)-N-((1S)-1-(5-((2-((1S)-1-(((2R)-2-(dimethylamino)-2-phenylacetyl)amino)ethyl)-1H-benzimidazol-6-yl)ethynyl)-1H-benzimidazol-2-yl)ethyl)-2-phenylacetamide]
pEC50 [1]: > 8.34

CN(C)[C@@H](C(=O)N1CCC[C@H]1c1nc2cc(-c3cnc(-c4cccc5[nH]c([C@@H]6C[C@@H]7C[C@@H]7N6C(=O)[C@@H](c6ccccc6)N(C)C)nc45)o3)ccc2[nH]1)c1ccccc1 (single isomer, unassigned) [Example J25]
pEC50 [1]: > 8.34

O=C(C1CCC1)N1CCC[C@H]1c1nc2cc(C#Cc3ccc4nc([C@@H]5CCCN5C(=O)C5CCC5)[nH]c4c3)ccc2[nH]1 [Example M9, 2-((2S)-1-(cyclobutylcarbonyl)-2-pyrrolidinyl)-5-((2-((2S)-1-(cyclobutylcarbonyl)-2-pyrrolidinyl)-1H-benzimidazol-6-yl)ethynyl)-1H-benzimidazole]
pEC50 [1]: 7.00 to 8.34

COC(=O)N[C@@H](C(=O)N1C2C[C@@H]2C[C@H]1c1nc2cc(-c3ccc(-c4ccc5[nH]c([C@@H]6C[C@H]7CC7N6C(=O)[C@H](NC(=O)OC)c6ccccc6)nc5c4)cc3)ccc2[nH]1)c1ccccc1 (single isomer, unassigned) [Example M46.1]
pEC50 [1]: > 8.34

CC(=O)N1CCC[C@H]1c1nc2ccc(C#Cc3ccc4[nH]c([C@@H]5CCCN5C(=O)Cc5cccs5)nc4c3)cc2[nH]1 [Example M54.23, 5-((2-((2S)-1-acetyl-2-pyrrolidinyl)-1H-benzimidazol-6-yl)ethynyl)-2-((2S)-1-(2-thienylacetyl)-2-pyrrolidinyl)-1H-benzimidazole]
pEC50 [1]: 7.00 to 8.34

O=C([C@@H]1CCCO1)N1CCC[C@H]1c1nc2cc(C#Cc3ccc4[nH]c([C@@H]5CCCN5C(=O)[C@@H]5CCCO5)nc4c3)ccc2[nH]1 [Example M26.5]
pEC50 (class symbols): 6.00 to 7.00

COC(=O)N[C@@H](C(=O)N1C2C[C@@H]2C[C@H]1c1nc2cc(-c3ccc(-c4ccc5[nH]c([C@@H]6C[C@H]7CC7N6C(=O)[C@H](NC(=O)OC)c6ccccc6)nc5c4)cc3)ccc2[nH]1)c1ccccc1 (single isomer, unassigned) [Example M46.2]
pEC50 (class symbols): > 8.34

CN1CCN(C(C(=O)N2CCC[C@H]2c2nc3cc(-c4cnc(-c5cccc6[nH]c([C@@H]7CCCN7C(=O)C(c7ccccc7)N7CCN(C)CC7)nc56)o4)ccc3[nH]2)c2ccccc2)CC1 (stereo partly drawn) [Example J14.1, 2-((2S)-1-((4-methyl-1-piperazinyl) (phenyl)acetyl)-2-pyrrolidinyl)-4-(5-(2-((2S)-1-((4-methyl-1-piperazinyl) (phenyl)acetyl)-2-pyrrolidinyl)-1H-benzimidazol-5-yl)-1,3-oxazol-2-yl)-1H-benzimidazole]
pEC50 [1]: 7.00 to 8.34

CC(=O)N[C@@H](C(=O)N1CCC[C@H]1c1nc2cc(-c3cnc(-c4cccc5[nH]c([C@@H]6CCCN6C(=O)[C@@H](c6ccccc6)N(C)C)nc45)o3)ccc2[nH]1)c1ccccc1 [Example J11.1, N-((1R)-2-((2S)-2-(5-(2-(2-((2S)-1-((2R)-2-(dimethyl-amino)-2-phenylacetyl)-2-pyrrolidinyl)-1H-benzimidazol-4-yl)-1,3-oxazol-5-yl)-1H-benzimidazol-2-yl)-1-pyrrolidinyl)-2-oxo-1-phenylethyl) acetamide]
pEC50 [1]: > 8.34

O=C(C(=O)N1CCC[C@H]1c1nc2cc(C#Cc3ccc4[nH]c([C@@H]5CCCN5C(=O)C(=O)c5ccccc5)nc4c3)ccc2[nH]1)c1ccccc1 [Example M26.3, 2.2′-(1,2-ethynediylbis(1H-benzimidazole-5,2-diyl(2S)-2,1-pyrrolidinediyl))bis(2-oxo-1-phenylethanone)]
pEC50 (class symbols): 6.00 to 7.00

COC(=O)N[C@H](C(=O)N1CCCC[C@H]1c1nc2ccc(-c3ccc(-c4ccc5nc([C@@H]6CCCCN6C(=O)[C@@H](NC(=O)OC)C(C)C)[nH]c5c4)cc3)cc2[nH]1)C(C)C [Example M46.3, Methyl((1S)-1-(((2S)-2-(5-(4-(2-((2S)-1-((2S)-2-((methoxycarbonyl)amino)-3-methylbutanoyl)-2-piperidinyl)-1H-benzimidazol-5-yl)phenyl)-1H-benzimidazol-2-yl)-1-piperidinyl)carbonyl)-2-methylpropyl)carbamate]
pEC50 [1]: > 8.34

O=C(OCc1ccccc1)N1C[C@H](O)C[C@H]1c1nc2cc(C#Cc3ccc4[nH]c([C@@H]5C[C@@H](O)CN5C(=O)OCc5ccccc5)nc4c3)ccc2[nH]1 [Example F11]
pEC50 [1]: > 8.34

COC(=O)N[C@@H](C(=O)N1CCC[C@H]1c1nc2cc(-c3cnc(-c4cccc5[nH]c([C@@H]6CCCN6C(=O)[C@@H](c6ccccc6)N6CCN(C)CC6)nc45)o3)ccc2[nH]1)c1ccccc1 [Example J29, methyl ((1R)-2-(((2S)-2-(5-(2-(2-((2S)-1-((2R)-2-(4-methyl-1-piperazinyl)-2-phenylacetyl)-2-pyrrolidinyl)-1H-benzimidazol-4-yl)-1,3-oxazol-5-yl)-1H-benzimidazol-2-yl)-1-pyrrolidinyl)-2-oxo-1-phenylethyl) carbamate]
pEC50 [1]: > 8.34

CN(C)[C@@H](C(=O)N1CCC[C@H]1c1nc2cc(C#Cc3ccc4[nH]c([C@@H]5CCCN5C(=O)[C@H]5CCCO5)nc4c3)ccc2[nH]1)c1ccccc1 [Example M53, (1R)-N,N-dimethyl-2-oxo-1-phenyl-2-((2S)-2-(5-((2-((2S)-1-((2R)-tetrahydro-2-furanylcarbonyl)-2-pyrrolidinyl)-1H-benzimidazol-5-yl)ethynyl)-1H-benzimidazol-2-yl)-1-pyrrolidinyl) ethanamine]
pEC50 [1]: > 8.34

O=C([C@H](O)c1ccccc1)N1CCC[C@H]1c1nc2cc(-c3cnc(-c4ccc5nc([C@@H]6CCCN6C(=O)[C@H](O)c6ccccc6)[nH]c5c4)o3)ccc2[nH]1 [Example J17, (1R)-2-((2S)-2-(5-(2-(2-((2S)-1-((2R)-2-hydroxy-2-phenylacetyl)-2-pyrrolidinyl)-1H-benzimidazol-6-yl)-1,3-oxazol-5-yl)-1H-benzimidazol-2-yl)-1-pyrrolidinyl)-2-oxo-1-phenylethanol]
pEC50 [1]: > 8.34
